{
  "source": "paper PMC12654037",
  "about": "“Norditerpene Natural Products from Subterranean Fungi with Anti-Parasitic Activity” (Microorganisms, 2025)",
  "key": {"[1]": {"system": "P. falciparum line Dd2", "experiment": "Plasmodium falciparum growth inhibition assay (SYBR Green I), Dd2", "experimental": "Plasmodium falciparum growth inhibition assay: Antiplasmodial EC50 results were determined using a fluorescence-based SYBR Green I assay performed using asynchronous cultures [30, 35]. […] Plates were subsequently frozen at −80 °C to facilitate lysis. […] Relative fluorescence units (RFUs) were normalized based on chloroquine-treated and no treatment controls. Serial dilutions of compounds were prepared in RPMI with final assay conditions of ≤0.2% DMSO. Each assay was conducted in triplicate with three biological replicates."}, "[2]": {"system": "C. parvum oocysts", "experiment": "C. parvum oocyst excystation assay", "type": "cell-based, Cryptosporidium parvum", "conditions": "7.5 µM, 1-hour incubation", "description": "C. parvum excystation and invasion assays: Oocyst excystation rates in the presence of compounds were determined as previously described. The C. parvum invasion inhibition assays were conducted in two formats. In the first format, described previously, HCT-8 cells were seeded on glass slides (CELLTREAT Scientific Product, Pepperell, MA, USA) and allowed to grow to confluence. Oidiolactone A was added to the cells for one hour. TrtE and DMSO were run in parallel as positive and negative controls, respectively. The cell monolayers were then infected with 1.2 × 10^6 wild-type C. parvum oocysts. After 3 h of incubation at 37 °C, the slides were washed five times with 111 mM D-galactose, fixed with 4% paraformaldehyde, and permeabilized with 0.25% Triton-X. C. parvum sporozoites were detected with rabbit anti-gp40 [39] and Alexa Fluor 594 goat anti-rabbit antibodies. The HCT-8 cell nuclei were stained with 0.09 mM Hoechst. Slides were coded to enable unbiased counting, and sporozoites from at least 10 randomly selected fields were counted in each sample at 100× magnification (Zeiss® Axioscope 5). The percentage of invaded parasites was determined using the following equation: % Invaded parasites = [parasitescompound/parasitesDMSO] × 100. This experiment was run in duplicate with two biological replicates."}, "[3]": {"system": "T. gondii intracellular stages", "experiment": "T. gondii immunofluorescence assay", "type": "cell-based, Toxoplasma gondii", "conditions": "7.5 µM, 24 h", "description": "For T. gondii IFAs, confluent HFF cells in 4-well chamber cell culture glass slides were infected with either 5 × 10^4 or 1 × 10^5 parasites/mL. At 6 hpi, 7.5 µM oidiolactone A or DMSO control was diluted in culture medium and added to the slides for 24 h. The slides were then fixed with 4% paraformaldehyde and permeabilized with 0.25% Triton-X. The slides were blocked with 3% goat serum in 0.25% Triton-X. The parasites were visualized with anti-T. gondii SAG1 and Alexa Fluor 594 goat anti-rabbit antibody. The slides were mounted, and images were acquired as described above and processed with NIS Elements GA3 (general analysis 3)."}, "[4]": {"system": "TgRH-Luc:GFP", "experiment": "T. gondii -static versus -cidal washout assay", "type": "cell-based, Toxoplasma gondii", "conditions": "for treatment time after which T. gondii did not recover (killing time): at EC90 15 µM, compound washed out, read 48 h post-infection", "description": "T. gondii growth inhibition assays: The T. gondii inhibition assay was described previously. Briefly, HFF cells were seeded onto white-sided, clear-bottom 96 well plates, grown to confluence, and then 5000 TgRH-Luc:GFP parasites were added to each well. At 24 hpi, compounds or DMSO were added. The growth of the parasites was determined by relative luminescence at 48 hpi using Promega Bright-Glo (Promega, Madison, WI, USA) substrate. Plates were read, and the percent inhibition of parasite growth was calculated as described above. Determination of -static versus -cidal activity was conducted as indicated above, with parasite growth quantified after 48 h of infection. Each sample was run in triplicate, and each experiment was repeated three times."}, "[5]": {"experiment": "HCT-8 cytotoxicity assay", "type": "cell-based", "conditions": "human; sub-confluent (~40% confluency); read-out: EC50 cytotoxicity against sub-confluent HCT-8 cells", "description": "(§1) HCT-8 and HFF cytotoxicity assays: Cytotoxicity of the compounds was determined against both confluent (the conditions of the infection assays) and growing HCT-8 and HFF host cells, as previously described. Cells were seeded into white-sided, clear-bottom 96-well plates and grown to either 40% or 100% confluency. Compounds were added to cells at various concentrations up to 100 µM in a final DMSO concentration of 0.5%. DMSO was run in parallel as a vehicle control. After 48 h, the viability of the cells was determined by either quantification of cellular ATP (Cell-Titer Glo cell viability assay; Promega, Madison WI, USA) or by MTT assay. Viability was determined 24 h after compound addition to HFF cells or 48 h after compound addition to HCT-8 cells or HepG2 cells. The percent cell growth was then calculated with the following formula: % Cell Growth = [RLUcompound/RLUDMSO] × 100. Samples were run in triplicate with two to three biological replicates."}, "[6]": {"system": "HCT-8 cells", "experiment": "HCT-8 cytotoxicity assay", "type": "cell-based", "description": "as §1"}, "[7]": {"experiment": "Microsomal stability assay, human", "conditions": "microsomes, pH 7.4", "description": "Microsomal stability assay. The in vitro microsomal stability assay was conducted in duplicate in commercially available mouse or human liver microsomes (Sekisui XenoTech, Kansas City, KS, USA), which were supplemented with nicotinamide adenine dinucleotide phosphate (NADPH) as a cofactor. […] The reaction was initiated by the addition of 1 mmol/L NADPH, followed by incubation at 37 °C. A negative control was performed in parallel without NADPH to reveal any chemical instability or non-NADPH dependent enzymatic degradation for each compound. […] At various time points (0, 5, 15, 30, and 60 min), a 40 µL of reaction aliquot was taken and quenched with 120 µL of acetonitrile containing 0.1% formic acid. The samples were then vortexed and centrifuged at 15,000 rpm for 5 min at 4 °C. The supernatants were collected and analyzed by LC-MS/MS to determine the in vitro metabolic half-life (t1/2)."}},
  "data": [
    {"smiles": "CO[C@H]1OC(=O)C=C2[C@@]13O[C@@H]3[C@H]1OC(=O)[C@@]3(C)CCC[C@@]2(C)[C@@H]13", "note": "[compound 1, oidiolactone A]", "values": [
      {"measurement": "SI: selectivity index=EC50 HepG2/ EC50 compound", "setting": "[1]", "value": "> 11"},
      {"measurement": "EC50", "setting": "[1]; Plasmodium falciparum, DD2, 72 h, read-out: EC50 Dd2 (M)", "value": "2.26e-06 ± 4.6e-07", "unit": "M"},
      {"measurement": "effect on oocyst excystation", "setting": "[2]", "value": "no effect"},
      {"measurement": "abundance of treated T. gondii parasites by IFA", "setting": "[3]", "value": "much lower abundances"},
      {"measurement": "EC90", "setting": "[4]; Toxoplasma gondii", "value": 15, "unit": "µM"},
      {"measurement": "treatment time after which T. gondii did not recover (killing time)", "setting": "[4]; listed as Oidiolactone A", "value": "≤ 24", "unit": "h"},
      {"measurement": "treatment time after which T. gondii did not recover (killing time)", "setting": "[4]; listed as oidiolactone A", "value": "8 to 12", "unit": "h"},
      {"measurement": "EC50 at 48 h", "setting": "[5]", "value": 29.7, "unit": "µM"},
      {"measurement": "TC50 HCT-8 (confluent)", "setting": "[6]; confluent", "value": "> 30", "unit": "µM"},
      {"measurement": "toxicity to host cells (no toxicity up to)", "setting": "[6]; confluent HCT-8, conditions of the infection assay, 48 h, cellular ATP", "value": "> 100", "unit": "µM"},
      {"measurement": "TC50 HCT-8 (sub-confluent)", "setting": "[6]; sub-confluent", "value": "29.7 ± 1.8", "unit": "µM"},
      {"measurement": "half-life at 1 µmol/L", "setting": "[7]", "value": "5.29 ± 0.278", "unit": "h"}
    ]}
  ]
}
